{"source": "patent US8334298B2", "about": "“Treatment or prevention of ovarian hyperstimulation syndrome (OHSS) using a dopamine agonist” (Ferring International Center S.A., priority 2005, dated 2012)", "origin": "cited, not measured here", "system": "patients with treatment-resistant OHSS", "conditions": "oral docarpamine, 27 patients; cited from earlier work", "data": [{"smiles": "CCOC(=O)Oc1ccc(CCNC(=O)[C@H](CCSC)NC(C)=O)cc1OC(=O)OCC", "note": "[docarpamine]", "values": [{"measurement": "ascites", "value": "ascites was decreased"}, {"measurement": "diuresis", "value": "Diuresis was increased in some women"}]}]}
